Reference: PMC12131194, “Rational design, synthesis, and evaluation of novel polypharmacological compounds targeting NaV1.5, KV1.5, and K2P channels for atrial fibrillation” (The Journal of Biological Chemistry, 2025)

Experiments:
human NaV1.5 = biological target: T1, human NaV1.5 (Homo sapiens, UniProt Q14524); test: Whole-cell patch-clamp in transfected HEK-293 cells, NaV1.5; format: cell-based; conditions: 10 μM and 100 μM, −10 mV
T1 construct: host or cells: HEK-293 (transient transfection)
Description: (§1) The human embryonic kidney 293 (HEK-293) cell line was obtained from the American Type Culture Collection. HEK-293 cells were cultured in Dulbecco’s modified Eagle’s medium (DMEM-F12, Invitrogen Life Technologies) supplemented with 5% (v/v) fetal bovine serum (FBS) (Thermo Fisher Scientific) and 1% antibiotics (penicillin 100 U/ml y streptomycin 100 μg/ml) (Gibco, Thermo Fisher). The cells were maintained at 37 °C and 5% CO2 atmosphere.
(§2) For the electrophysiological experiments, HEK-293 cells were transiently transfected with cDNA encoding human NaV1.5 (plasmid 145,374, Addgene), KV1.5 (NM_002234), and TASK-1 (NM_002246). […] The cells were incubated for 4 h in transfection medium OptiMEM (Invitrogen). […]
(§3) For Nav1.5, the effect of 6f at both concentrations was tested using a repetitive single test voltage pulse at −10 mV (during 20 ms) from a holding potential of −80 mV, with intervals of 5s between pulses. For Kv1.5 and TASK-1, ramp voltage protocols were applied with pulse intervals of 20 s, and the currents were analyzed at +40 mV.
(§4) After recording currents with stable amplitudes, the cells were treated with 6f and applied from the bath solution. Currents were continuously recorded during repetitive pulses until a stable effect was achieved. […] The inhibition percentage was calculated as follows: Inℎibition (%) = 100 ∗ (Icontrol − Idrug)/Icontrol.

human Kv1.5 = biological target: T2, human Kv1.5 (Homo sapiens, UniProt P22460); test: Whole-cell patch-clamp in transfected HEK-293 cells, KV1.5; format: cell-based; conditions: 10 μM and 100 μM, +40 mV
T2 construct: KV1.5 (NM_002234), and TASK-1 (NM_002246); expressed in transfected cells; host or cells: HEK-293 (transient transfection)
Description: as §1, §2
as §3, with “mV. […]” for “mV.”
as §4

T2 sequence (P22460 whole entry): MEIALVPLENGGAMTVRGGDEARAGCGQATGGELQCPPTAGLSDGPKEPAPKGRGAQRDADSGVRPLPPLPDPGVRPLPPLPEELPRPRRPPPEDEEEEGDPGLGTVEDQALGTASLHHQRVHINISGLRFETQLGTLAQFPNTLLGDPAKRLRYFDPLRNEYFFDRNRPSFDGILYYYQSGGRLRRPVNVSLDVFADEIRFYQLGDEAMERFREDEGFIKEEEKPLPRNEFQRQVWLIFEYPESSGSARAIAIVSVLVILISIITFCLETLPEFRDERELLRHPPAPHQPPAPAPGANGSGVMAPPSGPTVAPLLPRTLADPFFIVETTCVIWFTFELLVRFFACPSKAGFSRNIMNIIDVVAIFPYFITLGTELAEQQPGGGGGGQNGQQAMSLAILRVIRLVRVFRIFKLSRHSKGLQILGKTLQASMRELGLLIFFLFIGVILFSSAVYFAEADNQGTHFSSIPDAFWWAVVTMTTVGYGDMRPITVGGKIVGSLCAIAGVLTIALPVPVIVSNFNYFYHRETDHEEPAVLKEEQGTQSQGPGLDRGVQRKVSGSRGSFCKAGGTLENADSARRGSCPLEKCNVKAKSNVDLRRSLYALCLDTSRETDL
T1 sequence (Q14524 whole entry): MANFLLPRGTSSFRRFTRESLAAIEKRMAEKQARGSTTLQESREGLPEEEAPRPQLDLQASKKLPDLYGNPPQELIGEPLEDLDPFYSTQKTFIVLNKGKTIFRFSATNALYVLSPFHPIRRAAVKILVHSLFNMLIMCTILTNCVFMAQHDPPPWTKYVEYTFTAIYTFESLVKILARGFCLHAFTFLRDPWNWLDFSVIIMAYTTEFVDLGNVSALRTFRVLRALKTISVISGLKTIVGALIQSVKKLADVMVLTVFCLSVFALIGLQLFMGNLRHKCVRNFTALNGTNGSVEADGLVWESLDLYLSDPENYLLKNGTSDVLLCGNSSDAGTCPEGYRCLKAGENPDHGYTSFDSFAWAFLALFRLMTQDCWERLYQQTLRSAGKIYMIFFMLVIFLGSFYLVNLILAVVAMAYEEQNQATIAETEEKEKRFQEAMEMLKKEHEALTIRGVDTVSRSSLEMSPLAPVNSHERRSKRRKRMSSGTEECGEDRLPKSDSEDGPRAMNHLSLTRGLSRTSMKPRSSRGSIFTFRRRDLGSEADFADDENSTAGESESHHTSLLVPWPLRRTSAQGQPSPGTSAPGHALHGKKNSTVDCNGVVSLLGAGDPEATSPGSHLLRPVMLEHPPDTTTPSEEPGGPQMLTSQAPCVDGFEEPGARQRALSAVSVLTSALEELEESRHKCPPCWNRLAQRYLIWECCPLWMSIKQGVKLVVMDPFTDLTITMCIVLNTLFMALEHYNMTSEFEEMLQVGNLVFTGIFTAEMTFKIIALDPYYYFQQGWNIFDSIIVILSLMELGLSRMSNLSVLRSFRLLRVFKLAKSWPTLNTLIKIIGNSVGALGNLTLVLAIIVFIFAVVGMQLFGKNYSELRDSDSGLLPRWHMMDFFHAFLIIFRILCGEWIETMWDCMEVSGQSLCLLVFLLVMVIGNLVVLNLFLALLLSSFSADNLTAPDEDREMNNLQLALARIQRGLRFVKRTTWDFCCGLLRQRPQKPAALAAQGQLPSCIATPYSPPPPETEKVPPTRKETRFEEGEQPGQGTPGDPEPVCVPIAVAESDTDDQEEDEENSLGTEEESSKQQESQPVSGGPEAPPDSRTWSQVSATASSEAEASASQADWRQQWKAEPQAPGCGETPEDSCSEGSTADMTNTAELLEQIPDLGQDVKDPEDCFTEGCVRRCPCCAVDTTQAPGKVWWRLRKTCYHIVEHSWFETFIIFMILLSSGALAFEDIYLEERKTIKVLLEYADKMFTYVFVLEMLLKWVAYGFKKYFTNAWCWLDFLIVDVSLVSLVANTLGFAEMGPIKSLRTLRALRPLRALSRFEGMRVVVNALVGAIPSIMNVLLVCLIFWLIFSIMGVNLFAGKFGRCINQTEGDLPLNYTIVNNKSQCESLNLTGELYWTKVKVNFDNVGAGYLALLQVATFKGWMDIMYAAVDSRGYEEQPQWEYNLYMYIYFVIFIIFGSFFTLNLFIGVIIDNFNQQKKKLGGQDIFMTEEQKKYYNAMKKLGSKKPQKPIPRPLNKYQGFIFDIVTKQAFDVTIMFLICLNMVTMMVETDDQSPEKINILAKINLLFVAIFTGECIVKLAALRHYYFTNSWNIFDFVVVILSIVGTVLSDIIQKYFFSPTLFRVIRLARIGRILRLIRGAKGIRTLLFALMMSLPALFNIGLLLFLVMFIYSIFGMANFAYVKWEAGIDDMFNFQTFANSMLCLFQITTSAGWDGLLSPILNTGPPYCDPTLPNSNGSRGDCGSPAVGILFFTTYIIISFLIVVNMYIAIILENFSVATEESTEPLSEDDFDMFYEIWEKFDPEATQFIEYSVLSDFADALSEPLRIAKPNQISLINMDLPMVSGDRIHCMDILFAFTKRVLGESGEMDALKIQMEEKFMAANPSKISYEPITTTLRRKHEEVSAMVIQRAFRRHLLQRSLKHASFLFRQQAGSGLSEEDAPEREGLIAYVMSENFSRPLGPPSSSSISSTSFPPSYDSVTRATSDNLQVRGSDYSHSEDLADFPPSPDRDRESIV

SMILES: CCCCN(CCCC)CC(=O)Nc1ccc(OC)cc1OC [Compound 6f, 2-(dibutylamine)-N-(2,4-dimethoxiphenyl)acetamide]
- Blockade of NaV1.5 in HEK cells (human NaV1.5): significant blockade by 6f only at 100 μM
- Blockade of KV1.5 in HEK cells (human Kv1.5): significant blockade by 6f only at 100 μM
